Source: article PMC3630091, “A Mechanistic Paradigm for Broad-Spectrum Antivirals that Target Virus-Cell Fusion” (PLoS Pathogens, 2013)
Read-outs that look alike come from different tables or passages of the source.

Tests used:
[1] = test system: HIV; assay: microbe, parasite or virus in culture; type: cell-based; conditions: Human immunodeficiency virus 1, 10 min
[2] = test system: NDV; assay: microbe, parasite or virus in culture; type: cell-based, Newcastle disease virus; conditions: avian paramyxovirus 1, 10 min
[3] = test system: HSV; assay: microbe, parasite or virus in culture; type: cell-based, Herpes simplex virus-1; conditions: Human alphaherpesvirus 1, 10 min
[4] = Absorbance spectra / UV-visible spectra integration; type: physicochemical; conditions: for Abs Max (λmax): 100 µM in DMSO; for AUC (400-750 nm): integrated absorption divided by concentration, normalized relative to LJ001 (LJ001 = 100); for total integrated absorption (AUC), times that of LJ001: λ = 400 to 750 nm
[5] = Singlet oxygen quantum yield measurements; type: physicochemical; conditions: for 1O2 QY 355 nm: in CD2Cl2, excitation 355 nm; for 1O2 QY 355 nm / 1O2 QY 532 nm: error is one standard deviation; for 1O2 QY 532 nm: in CD2Cl2, excitation 532 nm
[6] = Singlet oxygen quenching measurements; type: physicochemical; conditions: 355 nm with C60 as external sensitizer; error is one standard deviation
[7] = test system: HIV-1JR-CSF; type: cell-based
[8] = test system: RVFV ZH501; type: in vivo, Balb/c mice; conditions: for time-to-death / survival compared to untreated controls: 20 pfu RVFV ZH501 IP, IP once a day for 7 days from 1 h post-challenge, JL118 1.25 mg/kg, JL122 and JL103 10 mg/kg
[9] = test system: enveloped viruses; type: cell-based
[10] = in vitro; conditions: human
[11] = Pharmacokinetics in mice; conditions: for improvements in relevant pharmacokinetic (PK) parameters compared to LJ001: half-life, AUC, bioavailability, clearance
[12] = Membrane partition into POPC LUV (fluorescence); conditions: for IL / Iw: POPC LUV, fluorescence intensity ratio from curve fitting
[13] = Membrane partition into HIV membrane-like mixture LUV (fluorescence); conditions: for IL / Iw: HIV-like mixture LUV, fluorescence intensity ratio from curve fitting
[14] = Acrylamide quenching in POPC vesicles; type: physicochemical; conditions: >50-fold molar excess of lipid; 3 mM POPC vesicles
[15] = test system: HIV-1JRCSF
[16] = test system: EBOV; assay: microbe, parasite or virus in culture; type: cell-based, Ebola Zaire; conditions: Zaire ebolavirus, 10 min, read-out: IC50 EBOV
[17] = test system: H1N1; assay: microbe, parasite or virus in culture; type: cell-based, Influenza A A/PR/8/34 (H1N1); conditions: read-out: IC50 H1N1
[18] = test system: NiV; assay: microbe, parasite or virus in culture; type: cell-based, Nipah virus Malaysia
[19] = test system: HeV; assay: microbe, parasite or virus in culture; type: cell-based, Hendra virus; conditions: Henipavirus hendraense, 10 min, read-out: IC50 HeV
[20] = test system: RVFV; assay: microbe, parasite or virus in culture; type: cell-based, Rift Valley fever MP-12 (vaccine strain); conditions: Rift Valley fever virus, 10 min, read-out: IC50 RVFV
[21] = test system: SFV; assay: microbe, parasite or virus in culture; type: cell-based; conditions: Semliki Forest virus, BHK, 10 min, read-out: IC50 SFV
[22] = test system: CMV; assay: microbe, parasite or virus in culture; type: cell-based, Cytomegalovirus (strain T3259); conditions: Human betaherpesvirus 5, 10 min, read-out: IC50 CMV, 10 min white light exposure of treated virus
[23] = test system: VSV; assay: microbe, parasite or virus in culture; type: cell-based; conditions: Vesicular stomatitis virus, 10 min, read-out: IC50 VSV
[24] = test system: RABV; assay: microbe, parasite or virus in culture; type: cell-based; conditions: Lyssavirus rabies, 10 min, read-out: IC50 RABV
[25] = test system: influenza virus A (A/PR/8/34 H1N1); conditions: 5 µM, light 1 h
[26] = Clinical observations after single dose in PK study; type: in vivo, female Balb/c mice
Protocol: Dose administration. […] These mice were replaced and the dose level was reduced to 5 mg/kg. […] Hypoactivity was the only clinical observation noted in some of the mice treated with the 3 test articles at 10 and 100 mg/kg po. […] These animals were replaced and administered with the lower ip dose level of 1.25 mg/kg and underwent blood collections. Mice received single ip doses of 1.25 mg/kg (JL109 and JL118) or 5 mg/kg (JL122) and po doses of 10 mg/kg (JL109, JL118, JL122), 50 mg/kg (JL109, JL118), or 100 mg/kg (JL109, JL118, JL122).

[27] = test system: VSV-ΔG-rluc pseudotyped with NiV envelope glycoproteins, F and G
[28] = test system: enveloped viruses; parameters: method as in PMID 20133606; conditions: non-cytotoxic concentrations; read-out: IC50, entry of numerous enveloped viruses; cited from earlier work
[29] = read-out: IC50 ± SD (nM) (N=x) HIV
[30] = read-out: IC50 ± SD (nM) (N=x) NDV
[31] = read-out: IC50 ± SD (nM) (N=x) HSV
[32] = female, Balb/c, mouse, in vivo, po, 10 mg/kg
[33] = female, Balb/c, mouse, in vivo, po, 100 mg/kg

Compound: CCN1C(=S)O/C(=C\c2ccc(-c3c(OC)cc(OC)cc3OC)o2)C1=S [JL122, (Z)-3-ethyl-5-((5-(2,4,6-trimethoxyphenyl)furan-2-yl)methylene)oxazolidine-2,4-dithione]
- IC50 [1, 29]: 64 ± 41.5 nM
- IC50 [2, 30]: 0.9 ± 0.8 nM
- IC50 [3, 31]: 2.4 ± 1.4 nM
- Abs Max (λmax) [4]: 545 nm
- AUC (400-750 nm) [4]: 153
- total integrated absorption (AUC), times that of LJ001 [4]: 1.53 times
- QY at 355 nm, times higher than LJ001 ([5]; 355 nm): about 2 times
- 1O2 QY 355 nm [5]: 0.43 ± 0.04
- 1O2 QY 532 nm [5]: 0.23 ± 0.02
- kT × 10-7 [6]: 1.970 ± 0.050 M-1s-1
- antiviral potency at physiological hematocrits [7]: maintained their antiviral potency
- time-to-death / survival compared to untreated controls [8]: moderate but significant delay in time-to-death
- Median survival ([8]; 50 pfu RVFV ZH501 IP, 10 mg/kg IP at 1, 12, 24 and 48 h post-challenge, n = 5): 6 days
- improved in vitro potency compared to LJ001 [9]: 10-100 fold
- CC50 [10]: 10300 nM
- MRT last ([11]; female, Balb/c, mouse, in vivo): 4.7 to 7 h
- Tmax ([11]; female, Balb/c, mouse, in vivo): 0.25 to 1 h
- AUC(0-t) ([11]; female, Balb/c, mouse, in vivo, ip, 5 mg/kg): 569 ng·h/mL
- Cmax ([11]; female, Balb/c, mouse, in vivo, ip, 5 mg/kg, ip 5 mg/kg): 122 ng/mL
- AUC(0-t) ([11]; female, Balb/c, mouse, in vivo, ip, 10 mg/kg): 924 ng·h/mL
- Cmax ([11]; female, Balb/c, mouse, in vivo, ip, 10 mg/kg, ip 10 mg/kg): 132 ng/mL
- AUC(0-t) [11, 32]: 232 ng·h/mL
- Cmax ([11]; female, Balb/c, mouse, in vivo, po, 50 mg/kg, po 50 mg/kg): 122 ng/mL
- AUC(0-t) [11, 33]: 1270 ng·h/mL
- improvements in relevant pharmacokinetic (PK) parameters compared to LJ001 [11]: > 10 fold
- Kp at 10 min, 50 µM [12]: 1130
- IL / Iw [12]: 143.8
- Kp at 10 min, 50 µM [13]: 267
- IL / Iw [13]: 613.7

Compound: C=CCN1C(=O)S/C(=C\c2ccc(-c3ccccc3)o2)C1=O [LJ025, (Z)-3-allyl-5-((5-phenylfuran-2-yl)methylene)thiazolidine-2,4-dione]
- fraction protected from the water-soluble quencher (acrylamide) [14]: over 85%
- Abs Max (λmax) [4]: 405 nm
- AUC (400-750 nm) [4]: < 100
- 1O2 QY 355 nm [5]: 0
- kT × 10-7 [6]: 0.191 ± 0.010 M-1s-1
- melting point: 149 to 151 °C
- CC50 [10]: > 50000 nM
- IL / Iw [12]: 2.79
- IL / Iw [13]: 3.60

Compound: Cc1cn([C@H]2C[C@H](N=[N+]=[N-])[C@@H](CO)O2)c(=O)[nH]c1=O [AZT]
- t1/2 (inhibition half-life, time-of-addition) [15]: > 8.33 h

Compound: C=CCN1C(=O)/C(=C/c2ccc(-c3ccccc3)o2)SC1=S [LJ001, (Z)-3-allyl-5-((5-phenylfuran-2-yl)methylene)-2-thioxothiazolidin-4-one]
- IC50 ([1]; read-out: IC50 HIV): 133 nM
- IC50 [1, 29]: 182 ± 244 nM
- IC50 ([2]; read-out: IC50 NDV): 95 nM
- IC50 [2, 30]: 181 ± 105 nM
- IC50 [16]: 900 nM
- IC50 ([17]; Influenza A virus, H1N1, 10 min): 25.7 nM
- IC50 [17]: 26 nM
- IC50 ([18]; Henipavirus nipahense, 10 min, read-out: IC50 NiV, 10 min white light exposure of treated virus): 47.5 nM
- IC50 ([18]; read-out: IC50 NiV, 10 min white light exposure of treated virus): 48 nM
- IC50 [19]: 18 nM
- IC50 [20]: 20 nM
- IC50 [21]: 537 nM
- IC50 ([3]; read-out: IC50 HSV): 20 nM
- IC50 [3, 31]: 35.3 ± 48.3 nM
- IC50 [22]: 147 nM
- IC50 [23]: 298 nM
- IC50 [24]: 5290 nM
- fraction protected from the water-soluble quencher (acrylamide) [14]: over 85%
- Abs Max (λmax) [4]: 455 nm
- AUC (400-750 nm) [4]: 100
- 1O2 QY 355 nm [5]: 0.20 ± 0.02
- 1O2 QY 532 nm [5]: 0
- kT × 10-7 [6]: 0.189 ± 0.010 M-1s-1
- increase in the number of oxidized forms of unsaturated phospholipids compared to LJ025-treated samples [25]: up to 300 fold
- clinical observations ([26]; single dose 5 mg/kg ip): appeared normal
- clinical observations ([26]; single dose 10 mg/kg ip): 2 were sacrificed in moribund condition and 1 was found dead
- t1/2 (inhibition half-life, time-of-addition) [27]: 1.12 h
- IC50 [28]: ≤ 500 nM
- CC50 [10]: 11900 nM
- clearance ([11]; female, Balb/c, mouse, in vivo): ~700 mL/min/kg
- half-life ([11]; female, Balb/c, mouse, in vivo): 0.2 h
- time post-dose up to which plasma levels were detectable ([11]; ip 5 mg/kg): ≤ 0.5 h
- time post-dose up to which plasma levels were detectable ([11]; iv 10 mg/kg): up to 1 hr
- IL / Iw [12]: 2.29
- Kp at 10 min, 50 µM [13]: 5190
- IL / Iw [13]: 2.41

Compound: CCN1C(=S)O/C(=C\c2ccc(-c3ccc(N(C)C)cc3)o2)C1=S [JL118, (Z)-5-((5-(4-(dimethylamino)phenyl)furan-2-yl)methylene)-3-ethyloxazolidine-2,4-dithione]
- IC50 [1, 29]: 11.7 ± 5.5 nM
- IC50 [2, 30]: 2.1 ± 1.4 nM
- IC50 [3, 31]: 10.1 ± 8.6 nM
- Abs Max (λmax) [4]: 610 nm
- AUC (400-750 nm) [4]: 200
- total integrated absorption (AUC), times that of LJ001 [4]: 2 times
- 1O2 QY 355 nm [5]: 0.14 ± 0.01
- 1O2 QY 532 nm [5]: 0.15 ± 0.02
- kT × 10-7 [6]: 4.600 ± 0.300 M-1s-1
- antiviral potency at physiological hematocrits [7]: maintained their antiviral potency
- time-to-death / survival compared to untreated controls [8]: moderate but significant delay in time-to-death
- clinical observations ([26]; single dose 2.5 mg/kg ip, about 15 min post administration): deaths occurred in the initial 3 animals
- improved in vitro potency compared to LJ001 [9]: 10-100 fold
- CC50 [10]: 37000 nM
- MRT last ([11]; female, Balb/c, mouse, in vivo): 5.3 to 11.4 h
- Tmax ([11]; female, Balb/c, mouse, in vivo): 0.25 to 1 h
- AUC(0-t) [11, 32]: 1350 ng·h/mL
- AUC(0-t) ([11]; female, Balb/c, mouse, in vivo, po, 50 mg/kg): 841 ng·h/mL
- AUC(0-t) [11, 33]: 1160 ng·h/mL
- improvements in relevant pharmacokinetic (PK) parameters compared to LJ001 [11]: > 10 fold
- Kp at 10 min, 50 µM [12]: 2700
- IL / Iw [12]: 233
- Kp at 10 min, 50 µM [13]: 2010
- IL / Iw [13]: 488
